Consider 43 molecules from US9527828B2, “Method for expanding hematopoietic stem cells using heterocyclic compound” (Nissan Chemical Industries, Ltd., priority 2007, dated 2016).

Bounds are passed on as bounds.

The first test concerns CD34^+CD38^− cells. The test can be described thus: Expansion of CD34+CD38− cells from human cord blood-derived CD34+ cells (Example 2). The format is cell-based. The following applies: 1 μg/mL compound, 50 ng/mL SCF, StemSpan SFEM, 7 days; based on number of CD34+CD38− cells in the absence of compound. On the procedure: The human cord blood-derived CD34^+ cells collected or purchased in Example 1 were plated on a 24-well plate (TPP) (10000 cells/1/mL/well). As the culture medium, StemSpan SFEM (Stemcell Technologies) containing 50 ng/mL SCF (Peprotech) was used, and Compounds No. 1 to 133 dissolved in dimethyl sulfoxide were added in an amount of 0.1% (v/v) to a final concentration of 1 μg/mL.
After the cells were incubated in liquid culture at 37° C. for 7 days in a CO2 incubator (5% CO2), the number of viable cells was counted by trypan blue assay. The number of CD34^+CD38^− cells was calculated as follows. After the incubation, the cells in the liquid culture was stained with a CD34 antibody (APC, Becton, Dickinson and Company) and a CD38 antibody (PE, Becton, Dickinson and Company), then washed with PBS(−) containing 2% (v/v) FBS and stained with propidium iodide (Sigma-Aldrich Japan) added to a final concentration of 5 μg/mL. The stained cells were analyzed with a flow cytometer JSAN (Bay Bioscience) to determined the proportion of CD34^+CD38^− cells, which was multiplied by the number of viable cells to calculate the number of CD34^+CD38^− cells.
The expansion efficiencies in the presence of 1 μg/mL of compounds based on the number of CD34^+CD38^− cells in the absence of them are shown in Tables 2 and 3 on a scale of A for expansion efficiencies of 10 or greater, B for expansion efficiencies of at least 5 and less than 10, and C for expansion efficiencies of at least 3 and less than 5.
With `C/C(=N\NC(=O)c1ccc(C(=O)NCc2cn(C)cn2)s1)c1csc(-c2ccc(C(F)(F)F)cc2)c1O` [compound 131], the Expansion efficiency entry is “A (A for expansion efficiencies of 10 or greater)”.

The same test, now with this note: Homo sapiens, 168 h, 1 μg/mL compound, 50 ng/mL SCF, StemSpan SFEM, 7 days; based on number of CD34+CD38− cells in the absence of compound; read-out: Expansion efficiency.
`C/C(=N\NC(=O)c1ccc(C(=O)NCc2cnn(C)n2)s1)c1csc(-c2ccc(C(F)(F)F)cc2)c1O` [compound 54]: the fold induction at 1 µg/mL lay in the range of 5 to 10.
Still for that read-out and setting: with `C/C(=N\NC(=O)c1ccc(C(=O)NC(C)c2ccc(C(N)=O)cc2)s1)c1csc(-c2ccc(Br)cc2)c1O` (stereo not shown) [compound 115] the figure was not below 10.
Still for that read-out and setting: the same measure for `C/C(=N\NC(=O)c1ccc(C(=O)NC2CCC(O)CC2)s1)c1csc(-c2ccc(Cl)c(Cl)c2)c1O` (stereo not shown) [compound 68]: 5 to 10; for `COc1cc(CNC(=O)c2ccc(C(=O)N/N=C(\C)c3csc(-c4ccc(OC(F)(F)F)cc4)c3O)s2)on1` [compound 15]: not below 10.
Still for that read-out and setting: with `C/C(=N\NC(=O)c1ccc(C(=O)NCc2cncn2C)s1)c1csc(-c2ccc(C(F)(F)F)cc2)c1O` [compound 52] the figure was 5 to 10; with `C/C(=N\NC(=O)c1ccc(C(=O)NCc2ccc(C(N)=O)cc2)s1)c1csc(-c2ccc(Br)cc2)c1O` [compound 87], not below 10.
For `C/C(=N\NC(=O)c1ccc(C(=O)NCc2cccnn2)s1)c1csc(-c2ccc(Cl)c(Cl)c2)c1O` [compound 44], the fold induction at 1 µg/mL lay within 5 to 10.
The same measure, in the same setting: with `CC(=O)Nc1ccc(C(C)NC(=O)c2ccc(C(=O)N/N=C(\C)c3csc(-c4ccc(Cl)cc4)c3O)s2)cc1` (stereo not shown) [compound 124] the figure was not below 10.
The same measure, in the same setting: with `C/C(=N\NC(=O)c1ccc(C(=O)NC(C)C)s1)c1csc(-c2cccc(Cl)c2)c1O` [compound 78] the figure was 5 to 10; with `C/C(=N\NC(=O)c1ccc(C(=O)NCc2cc(C)n(C)n2)s1)c1csc(-c2ccc(Br)cc2)c1O` [compound 127], not below 10; with `C/C(=N\NC(=O)c1ccc(C(=O)NCc2ccc(C#N)cc2)s1)c1csc(-c2ccc(Cl)c(Cl)c2)c1O` [compound 60], not below 10.
Same read-out and setting: the same measure for `COc1ccc(-c2scc(/C(C)=N/NC(=O)c3ccc(C(=O)NCc4cccc(C(N)=O)c4)s3)c2O)cc1` [compound 98]: not below 10; for `C/C(=N\NC(=O)c1ccc(C(=O)NCc2ccc(C(N)=O)cc2)s1)c1csc(-c2ccc(OC(F)(F)F)cc2)c1O` [compound 90]: not below 10.
On to `C/C(=N\NC(=O)c1ccc(C(=O)NCc2ccccc2C(N)=O)s1)c1csc(-c2ccc(C(F)(F)F)cc2)c1O` [compound 102], for which the fold induction at 1 µg/mL was not below 10.
On the same count and under the same terms, the same measure for `C/C(=N\NC(=O)c1ccc(C(=O)NCc2ccccn2)s1)c1csc(-c2ccc(Cl)c(Cl)c2)c1O` [compound 72]: 5 to 10.
The same measure, in the same setting: with `C/C(=N\NC(=O)c1ccc(C(=O)NCCCN2CCOCC2)s1)c1csc(-c2ccc(Br)cc2)c1O` [compound 33] the figure was 5 to 10; with `C/C(=N\NC(=O)c1ccc(C(=O)NCc2cccc(C(N)=O)c2)s1)c1csc(-c2ccc(C(C)(C)C)cc2)c1O` [compound 93], not below 10; with `CNC(=O)c1ccc(CNC(=O)c2ccc(C(=O)N/N=C(\C)c3csc(-c4ccc(Cl)cc4)c3O)s2)cc1` [compound 110], not below 10.
Same read-out and setting: the same measure for `C/C(=N\NC(=O)c1ccc(C(=O)NCc2cn(C)cn2)s1)c1csc(-c2ccc(Br)cc2)c1O` [compound 130]: not below 10; for `C/C(=N\NC(=O)c1ccc(C(=O)N(C)Cc2ccccc2)s1)c1csc(-c2ccc(Cl)c(Cl)c2)c1O` [compound 26]: not below 10; for `CNC(=O)c1ccc(C(=O)N/N=C(\C)c2csc(-c3ccc(Cl)cc3)c2O)s1` [compound 11]: not below 10.
As for `C/C(=N\NC(=O)c1ccc(C(=O)NCc2ccno2)s1)c1csc(-c2ccc(Cl)c(Cl)c2)c1O` [compound 40], the fold induction at 1 µg/mL was in the range of 5 to 10.
Same read-out and setting: the same measure for `C/C(=N\NC(=O)c1ccc(C(=O)NCc2cn(C)cn2)s1)c1csc(-c2ccc(OC(F)(F)F)cc2)c1O` [compound 82]: 3 to 5; for `C/C(=N\NC(=O)c1ccc(C(=O)NCCCCO)s1)c1csc(-c2ccc(Cl)c(Cl)c2)c1O` [compound 73]: 5 to 10.
On the same count and under the same terms, the same measure for `C/C(=N\NC(=O)c1ccc(C(=O)NCc2ccnn2C)s1)c1csc(-c2ccc(Cl)cc2)c1O` [compound 58]: 5 to 10.
As to `C/C(=N\NC(=O)c1ccc(C(=O)N(C(C)C)C(C)C)s1)c1csc(-c2ccc(Cl)c(Cl)c2)c1O` [compound 28], the fold induction at 1 µg/mL is not below 10.
The same measure, in the same setting: the same measure for `CCN(C)C(=O)c1ccc(C(=O)N/N=C(\C)c2csc(-c3ccc(Cl)c(Cl)c3)c2O)s1` [compound 81]: 3 to 5; for `C/C(=N\NC(=O)c1ccc(C(=O)NCc2cc(C)on2)s1)c1csc(-c2ccc(OC(F)(F)F)cc2)c1O` [compound 13]: not below 10; for `C/C(=N\NC(=O)c1ccc(C(=O)NCc2cccs2)s1)c1csc(-c2ccc(Cl)c(Cl)c2)c1O` [compound 25]: 5 to 10.
`C/C(=N\NC(=O)c1ccc(C(=O)NCCN2CCOCC2)s1)c1csc(-c2ccc(Cl)c(Cl)c2)c1O` [compound 23]: the fold induction at 1 µg/mL was 5 to 10.
The same measure, in the same setting: with `CC(=O)Nc1ccc(C(C)NC(=O)c2ccc(C(=O)N/N=C(\C)c3csc(-c4ccc(Cl)c(Cl)c4)c3O)s2)cc1` (stereo not shown) [compound 120] the figure was not below 10; with `C/C(=N\NC(=O)c1ccc(C(=O)NCc2cccc(C(N)=O)c2)s1)c1csc(-c2ccc(C(F)(F)F)cc2)c1O` [compound 95], not below 10.
`C/C(=N\NC(=O)c1ccc(C(=O)N(C)Cc2ccccn2)s1)c1csc(-c2ccc(Cl)c(Cl)c2)c1O` [compound 80]: the fold induction at 1 µg/mL lay within 3 to 5.
On the same count and under the same terms, the same measure for `C/C(=N\NC(=O)c1ccc(C(=O)NCc2ccc(C(=O)O)cc2)s1)c1csc(-c2ccc(Cl)c(Cl)c2)c1O` [compound 83]: 3 to 5.
Same read-out and setting: with `C/C(=N\NC(=O)c1ccc(C(=O)NCCN(C)C)s1)c1csc(-c2ccc(Cl)c(Cl)c2)c1O` [compound 66] the figure was 3 to 5; with `CNC(=O)c1ccc(CNC(=O)c2ccc(C(=O)N/N=C(\C)c3csc(-c4ccc(Br)cc4)c3O)s2)cc1` [compound 108], not below 10; with `C/C(=N\NC(=O)c1ccc(C(=O)NCc2ccccc2)s1)c1csc(-c2ccc(Cl)c(Cl)c2)c1O` [compound 16], not below 10.
As to `CC(=O)Nc1ccc(C(C)NC(=O)c2ccc(C(=O)N/N=C(\C)c3csc(-c4ccc(C(C)(C)C)cc4)c3O)s2)cc1` (stereo not shown) [compound 121], the fold induction at 1 µg/mL was 5 to 10.
`C/C(=N\NC(=O)c1ccc(C(=O)NCc2c(C)nn(C)c2C)s1)c1csc(-c2ccc(Cl)c(Cl)c2)c1O` [compound 41]: the fold induction at 1 µg/mL was in the range of 5 to 10.
On the same count and under the same terms, with `CNC(=O)c1ccc(CNC(=O)c2ccc(C(=O)N/N=C(\C)c3csc(-c4ccc(OC(F)(F)F)cc4)c3O)s2)cc1` [compound 111] the figure was not below 10; with `C/C(=N\NC(=O)c1ccc(C(=O)NCc2ccc(C(N)=O)cc2)s1)c1csc(-c2ccc(C(F)(F)F)cc2)c1O` [compound 88], not below 10; with `C/C(=N\NC(=O)c1ccc(C(=O)NCc2cnn(C)n2)s1)c1csc(-c2ccc(Cl)c(Cl)c2)c1O` [compound 53], 5 to 10.
